Measurements reported in PMC3267046 (Structure(London, England:1993), 2012).

What was measured:
Format in all cases: binding
[1] = molecular target: T1, Ddn (deazaflavin-dependent nitroreductase, Rv3547) (Mycobacterium tuberculosis, UniProt P9WP15); assay: intrinsic tryptophan fluorescence quenching; also steady-state kinetics (KM […]); set-up: full-length Ddn / MBP-Ddn fusion
nfa33440 = molecular target: T2, nfa33440 (Nocardia farcinica, UniProt Q5YUF0); assay: cocrystal structure, […] Å; HSQC NMR
T2 construct: gene NFA_33440; full-length (density starting at residue 6)
T2 sequence (Q5YUF0 1-147): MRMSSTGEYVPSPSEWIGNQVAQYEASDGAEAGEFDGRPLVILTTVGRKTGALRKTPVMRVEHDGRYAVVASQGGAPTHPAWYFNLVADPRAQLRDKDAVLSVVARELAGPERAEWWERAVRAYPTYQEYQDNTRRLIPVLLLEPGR

nfa18080 = molecular target: T3, nfa18080 (Nocardia farcinica, UniProt Q5YYT7); assay: crystal structure, […] Å
T3 construct: gene NFA_18080; full-length (density starts at residue 5)
T3 sequence (Q5YYT7 1-144): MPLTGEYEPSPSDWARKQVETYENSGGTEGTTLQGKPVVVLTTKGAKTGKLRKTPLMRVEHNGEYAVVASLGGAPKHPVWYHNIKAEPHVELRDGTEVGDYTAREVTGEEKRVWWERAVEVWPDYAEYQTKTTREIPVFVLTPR

[2] = molecular target: T1, Ddn (deazaflavin-dependent nitroreductase, Rv3547); assay: cocrystal structures (Holo-1 […] Å, Holo-2 […] Å); Trp fluorescence quenching Kd; HSQC NMR; set-up: […]; full-length Ddn / MBP-Ddn fusion (Kd)

T1 sequence (P9WP15 whole entry, the tested form may be a part): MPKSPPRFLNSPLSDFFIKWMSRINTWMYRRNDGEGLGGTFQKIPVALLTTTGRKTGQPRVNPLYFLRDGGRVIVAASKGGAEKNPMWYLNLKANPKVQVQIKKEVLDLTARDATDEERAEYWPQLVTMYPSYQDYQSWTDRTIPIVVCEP

Row | SMILES | Kd [1] [µM] | cocrystal structure, 1.80 Å; HSQC NMR (nfa33440) | crystal structure, 1.50 Å (nfa18080) | Kd [2] [µM]
1 | O=[N+]([O-])c1cn2c(n1)OC[C@@H](OCc1ccc(OC(F)(F)F)cc1)C2 [PA-824, (6S)-2-nitro-6-[4-(trifluoromethoxy)benzyl]oxy-6,7-dihydro-5H-imidazo[2,1-b][1,3]oxazine] | 31 | – | – | –
2 | C[C@H](OP(=O)(O)OC[C@@H](O)[C@@H](O)[C@@H](O)Cn1c2nc(=O)[nH]c(=O)c-2cc2ccc(O)cc21)C(=O)N[C@@H](CCC(=O)N[C@@H](CCC(=O)O)C(=O)O)C(=O)O [F420] | – | a cocrystal of nfa33440 with F420 confirmed that the overall structure and coenzyme binding are very similar | nfa18080 from N. farcinica, was solved by X-ray crystallography in the presence of F420 | 1
